# Test system: Tétranychus urticae
# Test: Adulticide test on Tétranychus urticae (treated bean plants)
# Format: in vivo
# Conditions: bean plants sprayed at different doses, infested with 25 females per leaf, 22-23°C, 60-65% relative humidity; live and dead mites counted 24 h and 48 h after treatment
# Text: On utilise des plants de haricots comportant deux feuilles qui sont traitées au pistolet Fisher à différentes doses des produits à tester. Après séchage, ces plants sont infestés à raison de 25 femelles de Tétranychus urticae par feuille et maintenus à 22-23◊C, 60 - 65% d'humidité relative. Les dénombrements des acariens vivants et morts sont effectués 24 heures et 48 heures après traitement.
smiles,measurement,value
"CC(C)(C)OC(=O)/C(F)=C\[C@H]1[C@@H](C(=O)OC2Cc3cccc(-c4ccccc4)c3C2)C1(C)C (stereo partly drawn) [Exemple 4, /1R-/1α,3α (E)/ 3-(3-terbutoxy-3-oxo-2-fluoro-1-propényl) -2,2-diméthyl cyclopropane carboxylatede 2,3-dihydro-4-phényl-1H-inden-2-yle]",CL 50,173 mg/hl
